Results: the NIST ThermoML archive (doi:10.1021/je700037z)
± gives the expanded uncertainty stated by the source.

Conditions: 101.33 kPa, Liquid, Pycnometric method

CCn1cc[n+](C)c1.F[B-](F)(F)F [1-ethyl-3-methylimidazolium tetrafluoroborate]
mass density (285 K): 1290 ± 7 kg/m3 | mass density (290 K): 1286 ± 7 kg/m3 | mass density (295 K): 1282 ± 7 kg/m3 | mass density (300 K): 1279 ± 7 kg/m3 | mass density (305 K): 1275 ± 7 kg/m3
